# Measurements: US11384379B2, “Method for producing a protein and disaccharide using a Talaromyces cellulolyticus” (AJINOMOTO CO., INC., priority 2017, dated 2022)
# B1: BGL3A: major extracellular-secretion type beta-glucosidase of T. cellulolyticus (SEQ ID NO: 38), tested as culture supernatant of strain F09pyr+ (protein, listed as Talaromyces cellulolyticus)
# chain: MYSAFLLLLASATPIVSAQSASWSAAYSKATAALSKLSQNDKIGMVTGVGWGKGPCVGNTAAPSGISFPSLCIQDSPLGVRYANPVTAFPAGTNAGMTWDRTLMNQRGAALGAESKGLGVHVQLGPVAGPLGKIAQGGRGWEGFGTDPYLSGVAMIETISGMQSSGTQACAKHYIGNEQELNRESMSSNIDDRTLHELYLWPFADAVRANVASVMCSYNQINGTFSCENEESMTGILKTELGFPGYIMSDWDAQHTTVTSANSGLDMTMPGSDYSDTPSSVLWGQNLANAISSGQVAQSRLDDMVTRILAAWYLVGQDQGFPAVAFNSWTGGQASVNVTSNHNQVARAVARDSIVLLKNTNSTLPLNKPSSIAIIGTDAQTNPSGPNACTDRGCDTGTLAMGWGSGTCQFPYLTDPLTAIKTRAASDGTTITTSISDNGSAGASVAQSAEYAIVFINSDSGEGYITVEGVAGDRNNLDPWHSGNALVQSVAAVNKKTIVVIHSVGPVILETILAQPNVVAVVWAGIPGQESGSALTDILYGSTAPSGKLTYTIAKQASDYGTAVVSGSDNYPEGLFIDYRHFDKSNIEPRYEFGYGLSYTTFGYTNLAIDITVSTGPTTGQIVPGGPSDLFESVGTVTVQVANTGSVAGSEVAQLYIGLPSSAPSSPPKQLRGFDKLSLAAGASGTATFDLTRRDLSYWDVSKQKWVVPSGAFTVYVGASSRDIRLQGTFTPGGSSTTSTITSSKTSTTISTSVTTSSSTTAKTTTTSSTTSSAGPTQTPYGQCGGQGWTGPTVCSSGWTCKVTNQWYSQCLQ
# B2: GH1-2: beta-glucosidase of T. cellulolyticus (SEQ ID NO: 23), His-tag at the C-terminus, expressed in E. coli and purified (protein, listed as Talaromyces cellulolyticus)
# chain: MGSVTSTNGETPQSKLPADFVWGYATASYQIEGAYDEDGRGPSIWDTFSKTPGKVEDGTNGDVACDSYHRTHEDIAILKQYGAKLYRFSLSWPRIIPLGGRNDPINQKGIDFYSKFIDDLHAAGIEPFVTLYHWDLPDELFKRYGGPLNKDEFVADYANFARIAFQSFGHKVKHWVTFNEPWCSSVLGFNIGKHAPGRTSDRKKNPVGDGVREPWIAGHSLLVAHGTAVDIYRKEFKPTQGGEIGITLNGDWAEPWDPEDPEDIEACTRKLEFAISWFADPIYLGKYPDSVVKQIGDRLPPLTPDEVALIKGSNDFYGMNHYCANYIRHREGEADPDDTAGNLDHLFEDKFGNSIGPETNCEWLRPHPLGFRKLLKWLSDRYGYPKIYVTENGTSIKGENDLPLEELLNDEFRVQYYRDYVGAMADAATFDGVNVKKYMAWSLMDNFEWSEGYQSRFGVTYVDYKDNQKRIPKKSALVIGELFNKYISKE
# modifications: C-terminal His-tag
# How the values were obtained:
# [1] = tested on: T. cellulolyticus strains F09pyr+ and F09Δgh1-2; experiment: Halo assay for secretory cellulase by various beta-linked glucose oligosaccharides (CMC minimal medium, Congo Red); assay type: cell-based, Talaromyces cellulolyticus; details: 30° C. for 36 hours
# Experimental: The strains F09pyr+ and F09Δgh1-2 were each grown on the minimal medium containing glucose as the carbon source for 3 days. […] After the culture, a Congo Red solution obtained by mixing 50 mM sodium phosphate buffer (pH 7.0) and 2 mg/ml Congo Red (Nacalai Tesque) in a volume ratio of 10:1 was added to the plate so that the Congo Red solution covered the entire plate, and the plate was left to stand for 30 minutes at a room temperature. Then, the Congo Red solution on the plate was removed, and sodium phosphate buffer (50 mM, pH 7.0) was added to the plate so that the sodium phosphate buffer covered the entire plate. The plate was again left to stand for 30 minutes at a room temperature. Then, the sodium phosphate buffer on the plate was removed, the surface of the plate was dried lightly, and observation of halo was carried out.
# [2] = tested on: T. cellulolyticus strain F09ΔcreA; experiment: Cellulase production fed-batch culture using gentiobiose, filter paper degradation activity; assay type: cell-based, Talaromyces cellulolyticus; details: carbon source other than glucose in the feed solution, compared with cellobiose; 72 hours
# Experimental: The T. cellulolyticus strains F09ΔcreA and F09Δgh1-2ΔcreA were each inoculated into PD medium, and cultured at 30° C. One agar disk excised from around the edge of a formed colony was inoculated into 20 mL of a liquid culture medium containing 20 g/L glucose, 24 g/L KH2PO4, 5 g/L (NH4)2SO4, 2 g/L Urea, 1.2 g/L MgSO4-7H2O, 0.01 g/L ZnSO4-7H2O, 0.01 g/L MnSO4-5H2O, 0.01 g/L CuSO4-5H2O, 1 g/L Corn steep liquor (C4648, SIGMA), and 1 g/L Tween 80, and gyratory culture (220 rpm) was carried out at 30° C. for 5 days as a pre-culture. […]
# The filter paper degradation activity (FPU/ml) of the obtained enzyme solutions was measured according to the following procedure, and the yield of the activity per carbon source was calculated on the basis of the consumption amount of sugar during the cultures by which the respective enzyme solutions were obtained.
# To a 100-μl aliquot of a citrate buffer (50 mM, pH 5.0) containing a filter paper (Whatman No. 1, GE Healthcare) cut to 6 mm×10 mm, 50 μl of an appropriately diluted sample were added, and a reaction was carried out at 50° C. for 1 hour. […] Then, the absorbance at 540 nm of the supernatant was measured, and the value of the blank was subtracted therefrom, to calculate an increase in absorbance. […]
# [3] = tested on: T. cellulolyticus strains Y-94, W363Frep, W449Frep, and C267Prep; experiment: Halo assay of strains Y-94, W363Frep, W449Frep, C267Prep with or without gentiobiose; assay type: cell-based, Talaromyces cellulolyticus; details: 1 mM gentiobiose in combination with W363F, W449F or C267P mutation in the gh1-2 gene; 5 days
# Experimental: (§1) The strains Y-94, W363Frep, W449Frep, and C267Prep were each grown on the minimal medium containing CMC as the carbon source and on the minimal medium containing CMC as the carbon source and 1 mM gentiobiosefor 5 days according to the procedure described in Example (1-4). After the culture, a Congo Red solution obtained by mixing 50 mM sodium phosphate buffer (pH 7.0) and 2 mg/ml Congo Red (Nacalai Tesque) in a volume ratio of 10:1 was added to the plate so that the Congo Red solution covered the whole of the plate, and the plate was left to stand for 30 minutes at a room temperature. Then, the Congo Red solution on the plate was removed, and sodium phosphate buffer (50 mM, pH 7.0) was added to the plate so that the sodium phosphate buffer covered the whole of the plate. The plate was again left to stand for 30 minutes at a room temperature. Then, the sodium phosphate buffer on the plate was removed, the surface of the plate was dried lightly, and the diameter and width of the visualized halo were measured.
# [4] = tested on: T. cellulolyticus strains F09pyrF+, F09Δgh1-2, F09Δbgl3A, and F09Δgh1-2Δbgl3A; experiment: Plate halo assay of double deficient strain of GH1-2 and BGL3A with or without gentiobiose; assay type: cell-based, Talaromyces cellulolyticus; details: 1 mM gentiobiose in combination with double disruption of the gh1-2 gene and the bgl3A gene; 5 days
# Experimental: as §1, with “F09pyrF+” for “Y-94, W363Frep, W449Frep,”, “F09Δgh1-2 constructed in Example (1-1), the strain F09Δbgl3A constructed in Example (5-1), and the strain F09Δgh1-2Δbgl3A constructed in Example (7-1)” for “C267Prep”
# [5] = tested on: HSA expressing strain derived from the T. cellulolyticus strain F09ΔyscB; details: feeding solution Gentiobiose 80 g/L vs Cellobiose 80 g/L; 45 hours
# Experimental: The HSA expressing strain derived from the T. cellulolyticus strain F09ΔyscB was inoculated into PD medium, and cultured at 30° C. One agar disk excised from around the edge of a formed colony was inoculated into 20 mL of a liquid culture medium containing 20 g/L glucose, 24 g/L KH2PO4, 5 g/L (NH4)2SO4, 2 g/L Urea, 1.2 g/L MgSO4-7H2O, 0.01 g/L ZnSO4-7H2O, 0.01 g/L MnSO4-5H2O, 0.01 g/L CuSO4-5H2O, 1 g/L Corn steep liquor (C4648, SIGMA), and 1 g/L Tween 80, and gyratory culture (220 rpm) was carried out at 30° C. for 5 days as a pre-culture. Then, 15 mL of the pre-culture broth was inoculated into 300 mL of a liquid culture medium containing 15 g/L glucose, 12 g/L KH2PO4, 10 g/L (NH4)2SO4, 1.2 g/L MgSO4-7H2O, 0.01 g/L ZnSO4-7H2O, 0.01 g/L MnSO4-5H2O, 0.01 g/L CuSO4-5H2O, 5 g/L Corn steep liquor, 1 g/L Tween 80, and 0.5 mL/L DISFOAM GD (NOF CORPORATION) in a jar fermenter, and fed-batch culture was carried out for 45 hours at a culture temperature of 30° C. and an aeration volume of 1/2 vvm, while controlling the dissolved oxygen concentration to be 5% or higher of the saturated oxygen concentration by stirring and controlling the pH to be 5 with using ammonia gas. […]
# HSA was quantified by ELISA using Albumin ELISA Quantitation Kit, Human (Bethyl Laboratories, inc.).
# [6] = Generation of gentiobiose from cellulosic substrate/glucose by culture supernatant containing BGL3A; assay type: biochemical; details: enzyme solution, no cellulosic substrate added, glucose 0-14.4 wt %, 50° C. for 24 hours
# Experimental: (§2) The strains F09Δbgl3A and F09pyr+ were each inoculated into a 1/2 PDA plate, and cultured at 30° C. for 3 days. […] Sampling was appropriately carried out, cells were removed using a 0.22 μm syringe filter, and the obtained culture supernatant was used as an enzyme solution. Thereby, an enzyme solution derived from the strain F09Δbgl3A not containing BGL3A (hereinafter, also referred to as “-BGL3A”) and an enzyme solution derived from the strain F09pyr+ containing BGL3A (hereinafter, also referred to as “+BGL3A”) were prepared.
# The reaction was carried out by placing 10 g of the reaction solution (Table 5) in a 50-ml tube and shaking the tube at 90 rpm at 50° C. for 24 hours.
# [7] = Generation of gentiobiose from cellobiose by culture supernatant containing BGL3A; assay type: biochemical; details: enzyme solution, 50° C. for 24 hours
# Experimental: as §2
# The two enzyme solutions obtained in Example (5-2) were used to degrade cellobiose, which is a decomposition product of a cellulosic substrate, under conditions of containing a certain concentration of glucose, and the product was analyzed. The reaction was carried out by placing 10 g of the reaction solution (Table 6) in a 50-ml tube and shaking the tube at 90 rpm at 50° C. for 24 hours.
# [8] = Reaction of GH1-2s with cellobiose, products by TLC and ion exchange chromatography; assay type: biochemical; details: 30 μg/mL enzyme, 2% cellobiose aqueous solution, 40° C. for 1 to 60 minutes
# Experimental: The purified GH1-2 was added to a 2% cellobiose aqueous solution at a concentration of 30 μg/mL, and a reaction solution after reaction at 40° C. for 1 to 60 minutes was used as a sample solution. The sample solution in 3 μL portions was spotted and developed on a thin layer chromatography plate (Merck) having a silica layer having a thickness of 200 μm, a size of 20×20 cm, and an average pore diameter of 60 angstroms. The composition of the developing solvent was chloroform:methanol:pure water=30:20:5 by volume ratio. An aniline phthalate method for detecting a reducing group was used for color development detection. […]
# (§3) The reaction mixture obtained by using the wild-type GH1-2 was subject to ion exchange chromatography under the conditions described in Example (2-2), and the reaction product was analyzed, and observation of the hydrolysis product and the transglycosylation product was carried out over time. […]
# as §3, with “Similarly, the” for “The”, “W363F mutant” for “wild-type”, “(2-2),” for “(2-2), and”, “time, and the result was compared with that observed when using the wild-type GH1-2 was observed.” for “time.”
# [9] = Reaction of purified GH1-2 with high-concentration glucose, products by ion-exchange chromatography; assay type: biochemical; details: 1.4 g/L enzyme
# Experimental: The purified GH1-2 was added to a 40% glucose aqueous solution at a concentration of 1.4 g/L, and reaction was carried out at 40° C. for 24 hours, to thereby obtain a sample. This sample was diluted 1000-fold with ion-exchanged water, and subjected to ion-exchange chromatography, to thereby analyze the reaction product. As a result, generation of beta-linked glucose oligosaccharides such as gentiobiose by GH1-2 was confirmed (FIG. 4).
# The purified GH1-2 obtained in Example (2-1) was added to a 560 g/L glucose solution at a concentration of 1.4 g/L, to thereby obtain a reaction mixture. The reaction mixture was stirred so as to be uniform, and then left to stand at a room temperature for 52 hours. Then, the reaction mixture was heated at 95° C. for 10 minutes, to thereby obtain a saccharide solution containing gentiobiose. It was confirmed by the ion-exchange chromatography mentioned above that the saccharide solution contains 35.04 g/L gentiobiose.
molecule,measurement,setting,value
"O=C[C@H](O)[C@@H](O)[C@H](O[C@@H]1O[C@H](CO)[C@@H](O)[C@H](O)[C@H]1O)[C@H](O)CO [cellobiose, reference compound]",complementation of the decrease in the ability for secretory production of cellulase due to deletion of the gh1-2 gene (halo),[1]; 1 mM in CMC minimal medium,scarcely able to complement the decrease in the ability for secretory production of cellulase
gentiobiose,complementation of the decrease in the ability for secretory production of cellulase due to deletion of the gh1-2 gene (halo),[1]; 0.01 mM in CMC minimal medium,complemented the decrease in the ability for secretory production of cellulase more strongly than other beta-linked glucose oligosaccharides
same,complementation of the decrease in the ability for secretory production of cellulase due to deletion of the gh1-2 gene (halo),[1]; 1 mM in CMC minimal medium,strongly complements the decrease in the ability for secretory production of cellulase
same,"efficiency of cellulase production (filter paper degradation activity, yield per carbon source)",[2],cellulase production with higher efficiency
same,secretory production of cellulase (diameter and width of degradation halo),[3],secretory production of cellulase is synergistically improved
same,secretory production of cellulase (width of degradation halo),[4],secretory production of cellulase is synergistically improved
same,secretory production amount of HSA,[5],greater in the case of feeding gentiobiose than in the case of feeding cellobiose
B1,generation of gentiobiose from glucose,[6],can generate gentiobiose from glucose in a concentration-dependent manner
same,generation of gentiobiose from cellobiose,[7],can generate gentiobiose from cellobiose
B2,activity on cellobiose (reaction products by TLC),[8],has not only a hydrolysis activity but also has a transglycosylation activity
same,activity on glucose (generation of beta-linked glucose oligosaccharides such as gentiobiose),"[9]; 40% glucose aqueous solution, 40° C. for 24 hours",has a transglycosylation activity
same,gentiobiose contained in the saccharide solution after reaction,"[9]; 560 g/L glucose solution, room temperature for 52 hours",35.04 g/L
